Laboratory results published in patent publication US20120009271A1, “METHOD OF DISEASE-INDUCED AND RECEPTOR-MEDIATED STEM CELL NEUROPROTECTION” (MEDICAL COLLEGE OF GEORGIA, priority 2009, published 2012).
“Also recorded” adds a separate entry of the source.

What was measured:
[1] = test system: cultured human amnion stem cells; assay: Oxidative stress (H202) in cultured human amnion stem cells, cell survival (Hoechst 33258, trypan blue); assay type: cell-based; settings: pre-treatment with melatonin 100 μM; H202 100 μM at day 4, survival at day 5; versus non-melatonin treated cells
[2] = test system: cultured human amniotic epithelial cells (AECs); assay: Immunocytochemistry of proliferation and differentiation of cultured AECs with or without melatonin; assay type: cell-based
Description: This is true for both control cells and cells treated with melatonin.

[3] = in vivo; cited from earlier work
[4] = test system: OGD-exposed primary rat cells; assay: Oxygen glucose deprivation (OGD) injury model, cell viability (Trypan blue and MTT assay); settings: AECs 5,000 per well or melatonin 100 uM; 20,000 rat cells per well
Description: To reveal the neuroprotective effects of these stem cells, cultured primary rat cells (gestation age 18) were initially exposed to OGD and immediately thereafter stem cells or conditioned media (harvested from OGD-exposed stem cells over 7 days) were added. Parallel sister cultures included non-OGD exposed rat cells (positive control). Stem cell doses were varied at 0 (negative control), 2.5%, 5%, 10% or 25% of total cell population per well. After 3 hours of stem cell or conditioned media treatment, cell viability (Trypan blue and MTT assay) and ELISA were performed.
Cultured primary rat cells (gestation age 18) were initially exposed to the oxygen glucose deprivation (OGD) injury model (92% N2 and 8% O2 gas for 90 minutes), and immediately thereafter AECs, AMCs or conditioned media (harvested from AECs or AMCs cultured over 7 days) were added to the OGD-exposed cells. Parallel sister cultures included non-OGD exposed rat cells (positive control). Placenta cell doses were varied at 0 (negative control), 2.5%, 5%, 10% or 25% of total cell population per well. After 3 hours of placenta cell or conditioned media treatment, cell viability (Trypan blue and MTT assay) and ELISA were performed.
Cultured primary rat cells (gestation age 18; 20,0000 cells per well) were initially exposed to the OGD injury model (92% N2 and 8% 02 gas for 90 minutes). […]

With `COc1ccc2[nH]cc(CCNC(C)=O)c2c1` [melatonin, N-acetyl-5-methoxytryptamine] the “cell survival after oxidative stress” value [1] was “protected against cell death; also recorded: significantly greater”, the “total TuJ1 positive cells in 5 fields (dendrite +/-)” value ([2]; 100 μM Melatonin versus control, FIG. 14A) was “increased the total number of cells expressing Tull” and the “total nestin positive or nestin/MelR1 positive cells in 5 fields” value ([2]; 100 μM Melatonin versus control, FIG. 14B) was “increases the total number of nestin positive or nestin/MelR1 positive expressing cells”. For the same molecule, the “neural differentiation (TuJ1 and GFAP) of melatonin receptor 1-expressing AECs” value ([2]; melatonin in growth media) was “enhanced neural differentiation”, the “proliferation of melatonin receptor 1-expressing AECs” value ([2]; melatonin in growth media) was “dose-dependently suppressed proliferation” and the half life [3] was 30 to 53 min. For the same molecule, the “neuroprotection against experimental stroke (OGD), single treatment” value [4] was “exerted neuroprotection”.
